Laboratory results from patent US9382254B2, “Compounds and pharmaceutical compositions thereof for the treatment of cystic fibrosis” (Galapagos NV, priority 2013, dated 2016).

Key:
Assay type in all cases: cell-based
[1] = molecular target: T1, CFTR ΔF508 mutant (Homo sapiens, UniProt P13569, DEL508-508); experiment: YFP-halide influx assay for the CFTR-ΔF508 mutation, gluconate buffer; settings: CFBE41o- cells, forskolin 10.67 μM
T1 construct: expressed in transfected cells; host or cells: CFBE41o- (adenoviral transduction)
Summary of the method: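 CFBE41o- cells adenovirally transduced with CFTR ΔF508 and YFP H148Q/I152L, then held 24 h at 27 °C or treated with CFTR modulator 24 h at 37 °C. I− quenching recorded for 7 s after injection; activity as 1-F/F0, EC50 from concentration plot.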

[2] = molecular target: T1, CFTR ΔF508 mutant; experiment: YFP-halide influx assay for the CFTR-ΔF508 mutation (384 well, FDSS/μCell); settings: CFBE41o- cells, CFTR-ΔF508, 1×D-PBS, fluorescence after 36 seconds
Summary of the method: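 Potentiator read-out as 1−F/F0, F taken 36 s after iodide addition, EC50 fitted against compound concentration. Cells: CFBE41o- expressing ΔF508 CFTR plus halide-sensitive YFP via adenovirus, rescued by 27 °C for 24 h or 24 h modulator at 37 °C.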

[3] = molecular target: T2, CFTR G551D mutant (Homo sapiens, UniProt P13569, G551D); experiment: YFP-halide influx assay for the CFTR-G551D mutation; settings: HEK293 cells, forskolin 10.67 μM
T2 construct: expressed in transfected cells; host or cells: HEK293 (reverse transfection with plasmid)
Summary of the method: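 HEK293 cells reverse-transfected with CFTR G551D and YFP H148Q/I152L/F47L halide sensor, expressed 24 h at 37 °C. Iodide-induced fluorescence quench recorded 7 s after I− injection; response = 1−F/F0, with EC50 from plot against compound concentration.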

T2 sequence (P13569 whole entry G551D): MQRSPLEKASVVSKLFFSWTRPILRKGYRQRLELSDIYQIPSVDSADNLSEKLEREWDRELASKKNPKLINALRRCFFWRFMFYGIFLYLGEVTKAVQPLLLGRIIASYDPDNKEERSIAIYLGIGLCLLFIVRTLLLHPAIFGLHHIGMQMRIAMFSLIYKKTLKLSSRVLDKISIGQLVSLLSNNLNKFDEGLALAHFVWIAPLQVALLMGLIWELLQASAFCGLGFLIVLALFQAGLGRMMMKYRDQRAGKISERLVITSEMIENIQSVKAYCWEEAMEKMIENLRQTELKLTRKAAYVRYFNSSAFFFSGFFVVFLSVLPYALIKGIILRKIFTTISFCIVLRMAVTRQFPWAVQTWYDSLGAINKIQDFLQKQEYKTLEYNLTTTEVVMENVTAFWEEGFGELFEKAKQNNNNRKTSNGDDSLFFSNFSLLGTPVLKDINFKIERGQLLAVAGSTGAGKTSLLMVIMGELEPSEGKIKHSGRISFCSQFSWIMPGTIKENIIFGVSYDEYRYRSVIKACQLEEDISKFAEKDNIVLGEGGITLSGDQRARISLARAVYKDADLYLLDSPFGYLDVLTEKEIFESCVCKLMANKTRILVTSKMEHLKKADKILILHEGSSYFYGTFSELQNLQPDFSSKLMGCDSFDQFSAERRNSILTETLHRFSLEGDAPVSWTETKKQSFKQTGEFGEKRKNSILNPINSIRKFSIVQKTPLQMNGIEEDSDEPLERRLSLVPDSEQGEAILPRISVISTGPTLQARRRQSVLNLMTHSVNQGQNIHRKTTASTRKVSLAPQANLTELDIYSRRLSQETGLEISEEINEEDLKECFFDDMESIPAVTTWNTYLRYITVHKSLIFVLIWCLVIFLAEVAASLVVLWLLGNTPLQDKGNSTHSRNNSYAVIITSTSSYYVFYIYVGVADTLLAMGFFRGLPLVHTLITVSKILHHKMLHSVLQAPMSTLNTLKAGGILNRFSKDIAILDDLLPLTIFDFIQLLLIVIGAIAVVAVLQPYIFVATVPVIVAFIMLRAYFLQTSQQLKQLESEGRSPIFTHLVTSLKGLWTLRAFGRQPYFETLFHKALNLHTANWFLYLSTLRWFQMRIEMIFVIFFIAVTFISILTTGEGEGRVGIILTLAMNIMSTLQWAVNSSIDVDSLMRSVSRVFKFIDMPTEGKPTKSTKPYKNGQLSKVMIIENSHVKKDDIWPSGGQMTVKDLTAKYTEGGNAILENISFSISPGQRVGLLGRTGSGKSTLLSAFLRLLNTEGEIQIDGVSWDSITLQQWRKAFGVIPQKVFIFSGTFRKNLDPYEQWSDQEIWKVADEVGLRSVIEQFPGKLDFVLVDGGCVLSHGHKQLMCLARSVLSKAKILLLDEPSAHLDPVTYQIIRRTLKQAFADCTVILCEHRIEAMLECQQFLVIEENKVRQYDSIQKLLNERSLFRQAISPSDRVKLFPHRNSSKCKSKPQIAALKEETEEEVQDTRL
T1 sequence (P13569 with tags, fused parts or gaps DEL508-508): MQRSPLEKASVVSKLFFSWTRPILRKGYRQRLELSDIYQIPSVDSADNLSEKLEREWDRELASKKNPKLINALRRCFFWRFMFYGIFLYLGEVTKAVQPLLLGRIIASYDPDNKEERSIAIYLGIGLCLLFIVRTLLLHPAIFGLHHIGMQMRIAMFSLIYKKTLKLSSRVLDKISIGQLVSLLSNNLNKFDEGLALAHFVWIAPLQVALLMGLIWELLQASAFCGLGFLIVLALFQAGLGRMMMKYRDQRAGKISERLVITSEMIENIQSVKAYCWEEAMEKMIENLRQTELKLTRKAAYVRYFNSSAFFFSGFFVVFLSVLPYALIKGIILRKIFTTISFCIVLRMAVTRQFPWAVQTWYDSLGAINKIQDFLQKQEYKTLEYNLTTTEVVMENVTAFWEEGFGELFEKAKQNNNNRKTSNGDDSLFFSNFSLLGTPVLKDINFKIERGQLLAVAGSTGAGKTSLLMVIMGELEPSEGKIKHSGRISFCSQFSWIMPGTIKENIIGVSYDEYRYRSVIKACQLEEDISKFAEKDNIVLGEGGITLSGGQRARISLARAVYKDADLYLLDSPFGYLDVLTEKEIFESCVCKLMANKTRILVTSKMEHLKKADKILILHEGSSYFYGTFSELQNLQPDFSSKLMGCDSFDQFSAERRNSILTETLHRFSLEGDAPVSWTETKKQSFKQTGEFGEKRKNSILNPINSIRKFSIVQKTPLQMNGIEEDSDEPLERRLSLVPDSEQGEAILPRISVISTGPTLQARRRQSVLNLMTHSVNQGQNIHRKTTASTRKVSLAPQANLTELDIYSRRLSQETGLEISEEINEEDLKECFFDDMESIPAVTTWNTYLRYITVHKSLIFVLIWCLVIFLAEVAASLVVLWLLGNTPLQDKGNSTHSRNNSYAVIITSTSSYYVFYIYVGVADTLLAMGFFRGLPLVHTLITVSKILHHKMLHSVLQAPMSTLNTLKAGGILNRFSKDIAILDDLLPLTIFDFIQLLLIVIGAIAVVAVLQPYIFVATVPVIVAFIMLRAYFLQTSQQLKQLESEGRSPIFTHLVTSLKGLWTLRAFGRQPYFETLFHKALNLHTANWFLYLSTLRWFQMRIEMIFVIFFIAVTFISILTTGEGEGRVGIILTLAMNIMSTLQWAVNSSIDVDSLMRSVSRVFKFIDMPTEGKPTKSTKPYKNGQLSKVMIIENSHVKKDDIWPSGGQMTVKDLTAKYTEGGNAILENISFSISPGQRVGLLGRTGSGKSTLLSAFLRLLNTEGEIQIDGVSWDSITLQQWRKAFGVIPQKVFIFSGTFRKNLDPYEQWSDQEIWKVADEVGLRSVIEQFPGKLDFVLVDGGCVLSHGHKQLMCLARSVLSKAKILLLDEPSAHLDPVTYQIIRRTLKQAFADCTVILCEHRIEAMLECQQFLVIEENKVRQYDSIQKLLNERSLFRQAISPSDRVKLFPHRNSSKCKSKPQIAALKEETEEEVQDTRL

Row | Structure (SMILES) | EC50 [1] [nM] | EC50 [2] [nM] | EC50 [3] [nM]
1 | CCc1cc(C(=O)Nc2sc(S(=O)(=O)c3ccccc3)c(C)c2C(N)=O)n[nH]1 [Compound 103, N-(3-carbamoyl-4-methyl-5-(phenylsulfonyl)thiophen-2-yl)-5-ethyl-1H-pyrazole-3-carboxamide] | 38.4 | 54.6 | –
2 | NC(=O)c1cc(S(=O)(=O)c2ccc(F)cc2)sc1NC(=O)c1ccccc1F [Compound 111, 2-(2-fluorobenzamido)-5-(4-fluorophenylsulfonyl) thiophene-3-carboxamide] | 84.3 | 199 | –
3 | CCc1cc(C(=O)Nc2sc(S(=O)(=O)c3cccc(F)c3)cc2C(N)=O)n[nH]1 [Compound 114, N-(3-carbamoyl-5-(3-fluorophenylsulfonyl)thiophen-2-yl)-5-ethyl-1H-pyrazole-3-carboxamide] | 90.7 | 102 | –
4 | CCc1cc(C(=O)Nc2sc(S(=O)(=O)c3ccccc3F)cc2C(N)=O)n[nH]1 [Compound 116, N-(3-carbamoyl-5-(2-fluorophenylsulfonyl)thiophen-2-yl)-5-ethyl-1H-pyrazole-3-carboxamide] | 59.7 | 63.5 | –
5 | CCc1cc(C(=O)Nc2sc(S(=O)(=O)c3ccc(F)c(F)c3)cc2C(N)=O)n[nH]1 [Compound 119, N-(3-carbamoyl-5-(3,4-difluorophenylsulfonyl)thiophen-2-yl)-5-ethyl-1H-pyrazole-3-carboxamide] | 78.3 | 187 | –
6 | CCc1ccccc1S(=O)(=O)c1cc(C(N)=O)c(NC(=O)c2ccccc2F)s1 [Compound 121, 5-(2-ethylphenylsulfonyl)-2-(2-fluorobenzamido) thiophene-3-carboxamide] | 74.9 | 292 | –
7 | COC1CCN(S(=O)(=O)c2cc(C(N)=O)c(NC(=O)c3ccccc3F)s2)CC1 [Compound 123, 2-(2-fluorobenzamido)-5-(4-methoxypiperidin-1-ylsulfonyl)thiophene-3-carboxamide] | 76.9 | 76.4 | –
8 | NC(=O)c1cc(S(=O)(=O)N2CCC(F)(F)CC2)sc1NC(=O)C1(O)CC1 [Compound 139, 5-(4,4-difluoropiperidin-1-ylsulfonyl)-2-(1-hydroxycyclopropanecarboxamido) thiophene-3-carboxamide] | 114 | 55.5 | –
9 | CC(C)(C)c1cc(C(=O)Nc2sc(S(=O)(=O)N3CCC(F)(F)CC3)cc2C(N)=O)n[nH]1 [Compound 142, 5-tert-butyl-N-(3-carbamoyl-5-(4,4-difluoropiperidin-1-ylsulfonyl)thiophen-2-yl)-1H-pyrazole-3-carboxamide] | 70.7 | 294 | 536
10 | CN(C1CC1)S(=O)(=O)c1cc(C(N)=O)c(NC(=O)c2ccccc2F)s1 [Compound 152, 5-(N-cyclopropyl-N-methylsulfamoyl)-2-(2-fluorobenzamido)thiophene-3-carboxamide] | 82.1 | 135 | –
11 | CC(C)N(C)S(=O)(=O)c1cc(C(N)=O)c(NC(=O)c2ccccc2F)s1 [Compound 153, 2-(2-fluorobenzamido)-5-(N-isopropyl-N-methylsulfamoyl) thiophene-3-carboxamide] | 46 | 46 | –
12 | CC(C)N(C(C)C)S(=O)(=O)c1cc(C(N)=O)c(NC(=O)c2ccccc2F)s1 [Compound 154, 5-(N,N-diisopropylsulfamoyl)-2-(2-fluorobenzamido) thiophene-3-carboxamide] | 105 | 427 | –
13 | COCCN(CC(F)(F)F)S(=O)(=O)c1cc(C(N)=O)c(NC(=O)c2ccccc2F)s1 [Compound 157, 2-(2-fluorobenzamido)-5-(N-(2-methoxyethyl)-N-(2,2,2-trifluoroethy)sulfamoyl) thiophene-3-carboxamide] | 86.5 | 60.9 | 241
14 | Cc1ccc(CN(C)S(=O)(=O)c2cc(C(N)=O)c(NC(=O)c3cc[nH]n3)s2)cc1 [Compound 170, N-(3-carbamoyl-5-(N-methyl-N-(4-methylbenzyl)sulfamoyl)thiophen-2-yl)-1H-pyrazole-3-carboxamide] | 38 | 184 | –
15 | COc1ccc(OC)c(S(=O)(=O)c2cc(C(N)=O)c(NC(=O)c3ccccc3F)s2)c1 [Compound 182, 5-(2,5-dimethoxyphenylsulfonyl)-2-(2-fluorobenzamido)thiophene-3-carboxamide] | 97.9 | 433 | –
16 | NC(=O)c1cc(S(=O)(=O)N2CCC(F)(F)CC2)sc1NC(=O)c1cc(C(F)(F)F)[nH]n1 [Compound 189, N-(3-carbmoyl-5-(4,4-difluoropiperidin-1-ylsulfonyl)thiophen-2-yl)-5-(trifluoromethyl)-1H-pyrazole-3-carboxamide] | 122 | – | 226
17 | NC(=O)c1cc(S(=O)(=O)N2CCC(F)(F)CC2)sc1NC(=O)c1ccccc1O [Compound 190, 5-(4,4-difluoropiperidin-1-ylsulfonyl)-2-(2-hydroxybenzamido)thiophene-3-carboxamide] | 73.9 | 83.3 | 278
18 | NC(=O)c1cc(S(=O)(=O)N(Cc2ccc(F)cc2)C2CC2)sc1NC(=O)c1cc[nH]n1 [Compound 191, N-(3-carbamoyl-5-(N-cyclopropyl-N-(4-fluorobenzyl)sulfamoyl)thiophen-2-yl)-1H-pyrazole-3-carboxamide] | 90 | 197 | 245
19 | CN(CC1CC1)S(=O)(=O)c1cc(C(N)=O)c(NC(=O)c2cc[nH]n2)s1 [Compound 193, N-(3-carbamoyl-5-(N-(cyclopropylmethyl)-N-methylsulfamoyl)thiophen-2-yl)-1H-pyrazole-3-carboxamide] | 114 | 49.5 | 206
20 | CC(C)S(=O)(=O)c1cc(C(N)=O)c(NC(=O)c2ccccc2O)s1 [Compound 197, 2-(2-hydroxybenzaido)-5-(isopropylsulfonyl) thiophene-3-carboxamide] | 91 | 24.8 | 158

Now those with a lower EC50 [1], led by results:

Row | EC50 [1] [nM] | EC50 [2] [nM] | EC50 [3] [nM] | Structure (SMILES)
21 | 20.5 | 26.8 | – | Cc1c(S(=O)(=O)c2ccccc2)sc(NC(=O)c2cc[nH]n2)c1C(N)=O [Compound 101, N-(3-carbamoyl-4-methyl-5-(phenylsulfonyl)thiophen-2-yl)-1H-pyrazole-3-carboxamide]
22 | 28.6 | 28.9 | – | NC(=O)c1cc(S(=O)(=O)c2ccc(F)cc2)sc1NC(=O)c1ccn[nH]1 [Compound 109, N-(3-carbamoyl-5-(4-fluorophenylsulfonyl)thiophen-2-yl)-1H-pyrazole-3-carboxamide]
23 | 29.2 | 5.8 | – | NC(=O)c1cc(S(=O)(=O)c2cccc(F)c2)sc1NC(=O)c1cc[nH]n1 [Compound 113, N-(3-carbamoyl-5-(3-fluorophenylsulfonyl)thiophen-2-yl)-1H-pyrazole-3-carboxamide]
24 | 36 | 9.6 | – | NC(=O)c1cc(S(=O)(=O)c2ccc(F)c(F)c2)sc1NC(=O)c1cc[nH]n1 [Compound 118, N-(3-carbamoyl-5-(3,4-difluorophenylsulfonyl)thiophen-2-yl)-1H-pyrazole-3-carboxamide]
25 | 29.3 | 10.3 | 67.4 | NC(=O)c1cc(S(=O)(=O)N2CCC(F)(F)CC2)sc1NC(=O)c1cc[nH]n1 [Compound 140, N-(3-carbamoyl-5-(4,4-difluoropiperidin-1-ylsulfonyl)thiophen-2-yl)-1H-pyrazole-3-carboxamide]
26 | 29.7 | 98.2 | 258 | CCc1cc(C(=O)Nc2sc(S(=O)(=O)N3CCC(F)(F)CC3)cc2C(N)=O)n[nH]1 [Compound 141, N-(3-carbamoyl-5-(4,4-difluoropiperidin-1-ylsulfonyl)thiophen-2-yl)-5-ethyl-1H-pyrazole-3-carboxamide]
27 | 29.2 | 27.2 | 232 | NC(=O)c1cc(S(=O)(=O)N2CCOCC2)sc1NC(=O)c1ccccc1O [Compound 143, 2-(2-Hydroxy-benzoylamino)-5-(morpholine-4-sulfonyl)-thiophene-3-carboxylic acid amide]
28 | 19.5 | 71 | 215 | CN(Cc1ccc(F)cc1)S(=O)(=O)c1cc(C(N)=O)c(NC(=O)c2cc[nH]n2)s1 [Compound 145, 1H-Pyrazole-3-carboxylic acid {3-carbamoyl-5-[(4-fluoro-benzyl)-methyl-sulfamoyl]-thiophen-2-yl}-amide]
29 | 15.4 | 42 | 136 | CN(Cc1ccc(F)cc1F)S(=O)(=O)c1cc(C(N)=O)c(NC(=O)c2cc[nH]n2)s1 [Compound 172, N-(3-carbamoyl-5-(N-(2,4-difluorobenzyl)-N-methylsulfamoyl)thiophen-2-yl)-1H-pyrazole-3-carboxamide]
30 | 21 | 15.8 | – | CN(c1ccc(F)cc1)S(=O)(=O)c1cc(C(N)=O)c(NC(=O)c2cc[nH]n2)s1 [Compound 173, 1H-Pyrazole-3-carboxylic acid {3-carbamoyl-5-[(4-fluoro-phenyl)-methyl-sulfamoyl]-thiophen-2-yl}-amide]
